By Ki is commonly meant the equilibrium dissociation constant of an inhibitor or competing ligand from its target.

The target in one experiment is T1, Human Recombinant Matriptase 2 (Homo sapiens, UniProt Q8IU80).
T1 construct: made in house
T1 sequence (Q8IU80 1-811): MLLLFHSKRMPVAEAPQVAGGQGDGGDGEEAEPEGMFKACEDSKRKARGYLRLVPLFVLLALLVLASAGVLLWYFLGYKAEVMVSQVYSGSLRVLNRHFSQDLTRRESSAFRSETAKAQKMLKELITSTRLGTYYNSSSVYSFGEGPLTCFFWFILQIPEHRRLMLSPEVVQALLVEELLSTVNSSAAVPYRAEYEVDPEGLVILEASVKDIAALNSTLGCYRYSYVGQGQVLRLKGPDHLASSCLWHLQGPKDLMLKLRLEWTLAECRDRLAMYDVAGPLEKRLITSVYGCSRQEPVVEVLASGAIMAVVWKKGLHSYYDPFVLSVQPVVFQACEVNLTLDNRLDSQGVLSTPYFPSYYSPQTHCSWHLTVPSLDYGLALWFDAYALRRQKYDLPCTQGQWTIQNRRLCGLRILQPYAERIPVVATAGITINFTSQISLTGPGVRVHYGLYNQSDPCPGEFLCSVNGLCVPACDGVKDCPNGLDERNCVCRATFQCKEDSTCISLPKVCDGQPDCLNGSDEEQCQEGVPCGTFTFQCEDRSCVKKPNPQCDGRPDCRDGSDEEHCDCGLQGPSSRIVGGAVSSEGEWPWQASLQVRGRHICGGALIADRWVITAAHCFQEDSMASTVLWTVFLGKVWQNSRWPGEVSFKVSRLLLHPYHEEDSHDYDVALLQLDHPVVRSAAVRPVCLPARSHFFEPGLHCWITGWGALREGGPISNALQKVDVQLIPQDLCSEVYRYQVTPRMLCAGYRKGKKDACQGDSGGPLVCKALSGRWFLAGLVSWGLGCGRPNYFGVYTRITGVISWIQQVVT
In words: Matriptase 2 inhibition, fluorescence based assay (Method I). It counts as biochemical. The conditions noted are these: Table A; Ki of Matriptase-2; read-out: Mat-2 Ki. In a few lines: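 In-house recombinant enzyme (3.5 nM), preincubated 30 min with compound, then Boc-Gln-Ala-Arg-AMC substrate (62 μM) in 50 mM Tris pH 7.5, 150 mM NaCl, 0.01% gelatin, 1% DMSO, 25 °C. Fluorescence (Ex 360/Em 480 nm) read 60 min after substrate; IC50 from variable-slope sigmoidal fit of % inhibition.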
`Cc1cccc(C)c1CS(=O)(=O)Nc1cc(Cn2c(C(=O)OCC3CCN(C)CC3)cc3ccc(CN)nc32)c2ccccc2c1` [Compound 188, (1-methylpiperidin-4-yl)methyl 6-(aminometh-yl)-1-({3-[(2,6-dimethyl-phenyl)methanesulfon-amido]naphthalen-1-yl}-methyl)-1H-pyrrolo[2,3-b]pyridine-2-carboxylate]: the Ki was ≤ 100 nM.
With `Cc1cccc(C)c1CS(=O)(=O)Nc1cc(Cn2c(C(=O)OC[C@H]3COCCN3)cc3ccc(CN)nc32)c2ccccc2c1` [Compound 189, [(3R)-morpholin-3-yl]-methyl 6-(aminomethyl)-1-({3-[(2,6-dimethyl-phenyl)methanesulfon-amido]naphthalen-1-yl}-methyl)-1H-pyrrolo[2,3-b]pyridine-2-carboxylate], the Ki was ≤ 100 nM.
The same measure, in the same setting: under `Cc1cccc(C)c1CS(=O)(=O)Nc1cc(Cn2c(C(=O)OCCCN3CCOCC3)cc3ccc(CN)nc32)c2ccccc2c1` [Compound 190, 3-(morpholin-4-yl)prop-yl 6-(aminomethyl)-1-({3-[(2,6-dimethylphen-yl)methanesulfonamido]-naphthalen-1-yl}meth-yl)-1H-pyrrolo[2,3-b]-pyridine-2-carboxylate] stands ≤ 100 nM; under `Cc1cccc(C)c1CS(=O)(=O)Nc1cc(Cn2c(C(=O)OCc3nccn3C)cc3ccc(CN)nc32)c2ccccc2c1` [Compound 191, (1-methyl-1H-imidazol-2-yl)methyl 6-(amino-methyl)-1-({3-[(2,6-dimethylphenyl)meth-anesulfonamido]naph-thalen-1-yl}methyl)-1H-pyrrolo[2,3-b]pyridine-2-carboxylate], ≤ 100 nM; under `COCCN1CCC(COC(=O)c2cc3ccc(CN)nc3n2Cc2cc(NS(=O)(=O)Cc3c(C)cccc3C)cc3ccccc23)CC1` [Compound 192, [1-(2-methoxyethyl)-piperidin-4-yl]methyl 6-(aminomethyl)-1-({3-[(2,6-dimethylphenyl)-methanesulfonamido]-naphthalen-1-yl}meth-yl)-1H-pyrrolo[2,3-b]-pyridine-2-carboxylate], ≤ 100 nM.
As to `Cc1cccc(C)c1CS(=O)(=O)Nc1cc(Cn2c(C(=O)O)cc3ccc(CN)nc32)c2ccccc2c1` [Compound 195, 6-(aminomethyl)-1-({3-[(2,6-dimethylphenyl)-methanesulfonamido]-naphthalen-1-yl}methyl)-1H-pyrrolo[2,3-b]pyr-idine-2-carboxylic acid], the Ki was ≤ 100 nM.
Still for that read-out and setting: for `Cc1cccc(C)c1CS(=O)(=O)Nc1cc(Cn2c(C(=O)NCCN3CCOCC3)cc3ccc(CN)nc32)c2ccccc2c1` [Compound 196, 6-(aminomethyl)-1-({3-[(2,6-dimethylphenyl)-methanesulfonamido]-naphthalen-1-yl}meth-yl)-N-[2-(morpholin-4-yl)ethyl]-1H-pyrrolo-[2,3-b]pyridine-2-car-boxamide] the value was ≤ 100 nM; for `CC(=O)N(C)CCOC(=O)c1cc2ccc(CN)nc2n1Cc1cc(NS(=O)(=O)Cc2c(C)cccc2C)cc2ccccc12` [Compound 197, 2-(N-methylacetamido)-ethyl 6-(aminomethyl)-1-({3-[(2,6-dimethylphen-yl)methanesulfonamido]-naphthalen-1-yl}methyl)-1H-pyrrolo[2,3-b]pyr-idine-2-carboxylate], ≤ 100 nM.

The same experiment, now with this note: Table A; Ki of Matriptase-2 given as class symbols; read-out: Mat-2 Ki.
With `Cc1cccc(C)c1CS(=O)(=O)Nc1cc(Cn2c(C(=O)OCC3CCN(C=O)CC3)cc3ccc(CN)nc32)c2ccccc2c1` [Compound 198, (1-formylpiperidin-4-yl)-methyl 6-(aminomethyl)-1-({3-[(2,6-dimethyl-phenyl)methanesulfon-amido]naphthalen-1-yl}-methyl)-1H-pyrrolo[2,3-b]pyridine-2-carboxylate], the Ki is ≤ 100 nM.
`Cc1cccc(C)c1CS(=O)(=O)Nc1cc(Cn2c(C(=O)OCCN3CCOCC3)cc3ccc(CN)nc32)c2ccccc2c1` [Compound 199, 2-(morpholin-4-yl)ethyl 6-(aminomethyl)-1-({3-[(2,6-dimethylphenyl)-methanesulfonamido]-naphthalen-1-yl}meth-yl)-1H-pyrrolo[2,3-b]-pyridine-2-carboxylate]: the inhibitory constant (Ki) is 100 to 500 nM.
Take `CNCCOC(=O)c1cc2ccc(CN)nc2n1Cc1cc(NS(=O)(=O)Cc2c(C)cccc2C)cc2ccccc12` [Compound 200, 2-(methylamino)ethyl 6-(aminomethyl)-1-({3-[(2,6-dimethylphenyl)-methanesulfonamido]-naphthalen-1-yl}meth-yl)-1H-pyrrolo[2,3-b]-pyridine-2-carboxylate]: the Ki lay in the range of 100 to 500 nM.
With `Cc1cccc(C)c1CS(=O)(=O)Nc1cc(Cn2c(C(=O)OCCN(C)C)cc3ccc(CN)nc32)c2ccccc2c1` [Compound 201, 2-(dimethylamino)ethyl 6-(aminomethyl)-1-({3-[(2,6-dimethylphenyl)-methanesulfonamido]-naphthalen-1-yl}methyl)-1H-pyrrolo[2,3-b]pyr-idine-2-carboxylate], the inhibitory constant (Ki) was 100 to 500 nM.
Still for that read-out and setting: for `CCOC(=O)c1cc2ccc(CN)nc2n1Cc1cc(NS(=O)(=O)Cc2c(C)cccc2C)cc2ccccc12` [Compound 202, ethyl 6-(aminomethyl)-1-({3-[(2,6-dimethyl-phenyl)methanesulfon-amido]naphthalen-1-yl}-methyl)-1H-pyrrolo[2,3-b]pyridine-2-carboxylate] the value was 500 to 3000 nM.
Same read-out and setting: for `CN1CCC(COC(=O)c2cc3ccc(CN)nc3n2Cc2cc(NS(=O)(=O)Cc3ccccc3O)cc3ccccc23)CC1` [Compound 203] the value was ≤ 100 nM; for `Cc1ccccc1CS(=O)(=O)Nc1cc(Cn2c(C(=O)OCC3CCN(C)CC3)cc3ccc(CN)nc32)c2ccccc2c1` [Compound 204], ≤ 100 nM.
Take `CN1CCC(COC(=O)c2cc3ccc(CN)nc3n2Cc2cc(NS(=O)(=O)Cc3ccccc3F)cc3ccccc23)CC1` [Compound 205, (1-methylpiperidin-4-yl)methyl 6-(aminometh-yl)-1-({3-[(2-fluorophen-yl)methanesulfonamido]-naphthalen-1-yl}methyl)-1H-pyrrolo[2,3-b]pyr-idine-2-carboxylate]: the Ki is ≤ 100 nM.
As to `CN1CCC(COC(=O)c2cc3ccc(CN)nc3n2Cc2cc(NS(=O)(=O)Cc3ccc(F)cc3)cc3ccccc23)CC1` [Compound 206, (1-methylpiperidin-4-yl)-methyl 6-(aminomethyl)-1-({3-[(4-fluorophenyl)-methanesulfonamido]-naphthalen-1-yl}meth-yl)-1H-pyrrolo[2,3-b]-pyridine-2-carboxylate], the Ki was ≤ 100 nM.
Still for that read-out and setting: for `CN1CCC(COC(=O)c2cc3ccc(CN)nc3n2Cc2cc(NS(=O)(=O)Cc3ccoc3)cc3ccccc23)CC1` [Compound 207, (1-methylpiperidin-4-yl)-methyl 6-(aminomethyl)-1-({3-[(furan-3-yl)meth-anesulfonamido]naph-thalen-1-yl}methyl)-1H-pyrrolo[2,3-b]pyridine-2-carboxylate] the value was ≤ 100 nM; for `NCc1ccc2cc(C(=O)Nc3nnn[nH]3)n(Cc3cc(NS(=O)(=O)CC[C@@H]4CCCN4)cc4ccccc34)c2n1` [Compound 208, 6-(aminomethyl)-1-[(3-(2-[(2S)-pyrrolidin-2-yl]ethanesulfonamido}-naphthalen-1-yl)methyl]-N-(1H-1,2,3,4-tetrazol-5-yl)-1H-pyrrolo[2,3-b]-pyridine-2-carboxamide], ≤ 100 nM.

These data come from patent US20240400553A1, “AMINE BASED MATRIPTASE 2 INHIBITORS AND USES THEREOF” (Disc Medicine, Inc., priority 2023, published 2024).
